How the values were obtained:
α-MyHC protein levels = test: α-MyHC cytoblot assay in neonatal rat ventricular myocytes (NRVM); format: cell-based; settings: for EC50: tested according to Example 1, read-out: MPE50 for increasing α-MyHC protein levels
Description: FIG. 1 Concentration-dependent effect of Compound 1 on α-MyHC protein levels in the cytoblot assay. NRVM are cultured for 3 days in serum-free medium in the presence of differing amounts of Compound 1. At the end of the culture period, NRVM are fixed and analyzed for α-MyHC protein levels using the BA-G5 monoclonal antibody specific for α-MyHC. Results are collected as RLU using a Packard Fusion Plate reader, and normalized to the signal from samples cultured in the absence of compound (control, set to 100%).
Preparation and culture of neonatal rat ventricular myocytes (NRVM) was performed by removing hearts from 1-3 day old rat neonatal pups, along with the atria and lungs. The ventricles were cut into smaller pieces and digested 3 times with collagenase for 20-30 min at 37° C. The myocytes were then separated from other cell types using a Percoll gradient. The myocyte layer was collected, washed 2 times, and plated on tissue culture grade 10 cm Petri dishes for 1-2 hrs. The non-adherent cells (myocytes) were removed and plated in Costar clear view 96 well plates coated with 0.2% gelatin for at least 2 hrs. The gelatin solution was removed, and the myocytes were resuspended in DMEM high glucose media (Mediatech) containing 10% charcoal/dextran treated FBS (Hyclone) and 1% Penicillin-Streptomycin-Glutamine (PSG, Gibco). Ten thousand NRVM were plated per well in a 100 μl volume, and incubated overnight at 37° C. in 5% CO2 in air. The following day, the media was replaced with 100 μl of serum-free DMEM high glucose medium supplemented with PSG and 0.3% Nutridoma-SP (Roche).
Compounds were reconstituted in DMSO at 30 mM, and aliquots were stored at −20° C. A 1:1000 dilution was prepared in serum-free DMEM medium supplemented with PSG and 0.3% Nutridoma, and sonicated for 5 min at room temperature. After sonication, additional 3 fold dilutions were prepared in the same medium. Diluted compound was then added to the NRVM cultures in a volume of 100 μl. A 100 mM thyroid hormone stock solution (T3, Calbiochem) was prepared in 100 mM NaOH and added at a final concentration of 3 nM in DMEM medium supplemented with PSG and 0.3% Nutridoma-SP (Roche). NRVM were cultured for 3 days before detection of α-myosin heavy chain (α-MyHC) protein levels in the cytoblot assay.
For the α-MyHC cytoblot assay, NRVM cultures were analyzed for α-MyHC protein levels after 3 days of incubation. NRVM were washed 2 times with PBS, fixed with methanol for 30 min at 4° C., and washed an additional 2 times with PBS. Blocking solution consisting of PBS with 1% bovine serum albumin (BSA, Fisher Biotech) was added for 1 hr at room temperature before addition of a saturating amount of supernatant containing an α-MyHC specific antibody for 60 min at room temperature (BA-G5 hybridoma, ATTC). Two washes were performed with PBS/1% BSA, and a 1:500 dilution of HRP-goat anti-mouse IgG (Southern Biotech) diluted in PBS/1% BSA was added for 60 min at room temperature. Excess antibody was removed with 3 PBS washes, and a chemiluminescent substrate was added (Pierce SuperSignal West Pico Chemiluminscent Substrate) for 5 min before quantitation on a Packard Fusion Plate Reader.
As shown above in Table 1, Compound 1 increased α-MyHC protein levels as determined by an α-MyHC cytoblot assay. Compound 1 was added to NRVM at concentration ranging from 3 nM to 30 μM. After 3 days of incubation with NRVM, α-MyHC protein levels were detected in the cytoblot assay and quantitated (FIG. 1). […] An increase in α-MyHC protein levels was first detected beginning at 30 nM, with a maximal response observed at 3 μM. In six independent experiments, the concentration of Compound 1 that gave a half-maximal response was on average 60 nM.

[1] = system: secretion of atrial natriuretic factor; test: Anti-hypertrophic activity in NRVM, ANF ELISA (ANF secretion); format: cell-based, rat; settings: NRVM, hypertrophy induced by pharmacological stimuli; read-out: IC50 of the ANF ELISA (antihypertrophic activity)
Description: Anti-hypertrophic Activity of Racemic Compound 1 and Purified Enantiomers of Compound 1. Neonatal rat ventricular myocytes (NRVM) were isolated from 1 to 3 day-old Sprague-Dawley rats using enzymatic digestion and myocyte enrichment techniques. NRVM were cultured in serum-containing media for 18 hours. For the continuation of culture, serum-free media was used. Hypertrophy of NRVM was induced using pharmacological stimuli, including phenylephrine, endothelin-1, and […]. Hypertrophic responses were determined using methods including the following: measurement of total cellular protein; secretion of atrial natriuretic factor; determination of cell volume; determination of the expression of so-called fetal genes such as atrial natriuretic factor, beta-myosin heavy chain and alpha-skeletal actin. ANF secretion was the most sensitive assay for measuring hypertrophy, and the IC50 of the ANF ELISA was the measurement used to determine antihypertrophic activity.

Row | SMILES | % increase of a-MyHC over baseline at 10 mM Cpd (α-MyHC protein levels; NRVM, 3 days) | further results
1 | CC(=O)C1=C(C)NC(SCC(=O)c2cccc([N+](=O)[O-])c2)=C(C#N)C1c1cccc(C)c1 (racemic) [Compound 2] | 95% | 
2 | CC(=O)C1=C(C)NC(SCC(=O)c2cc(Cl)ccc2Cl)=C(C#N)C1c1ccccc1Cl (racemic) [Compound 3] | 314% | 
3 | CC(=O)C1=C(C)NC(SCC(=O)c2ccccc2Cl)=C(C#N)C1c1ccccc1Cl (racemic) [Compound 4] | 135% | 
4 | CC(=O)C1=C(C)NC(SCC(=O)c2ccc(Cl)cc2)=C(C#N)C1c1ccccc1Cl (racemic) [Compound 5] | 52% | 
5 | CC(=O)C1=C(C)NC(SCC(=O)c2ccc(Br)cc2)=C(C#N)C1c1ccccc1Cl (racemic) [Compound 6] | 53% | 
6 | CC(=O)C1=C(C)NC(SCC(=O)c2ccc(Cl)c(Cl)c2)=C(C#N)C1c1ccc(Cl)cc1 (racemic) [Compound 7] | 43% | 
7 | CC(=O)C1=C(C)NC(SCC(=O)c2ccc(Cl)cc2Cl)=C(C#N)C1c1ccc(Cl)cc1 (racemic) [Compound 8] | 29% | 
8 | CC(=O)C1=C(C)NC(SCC(=O)c2ccccc2Cl)=C(C#N)C1c1ccc(Cl)cc1 (racemic) [Compound 9] | 80% | 
9 | CC(=O)C1=C(C)NC(SCC(=O)c2ccc(Cl)c(Cl)c2)=C(C#N)C1c1ccc(F)cc1 (racemic) [Compound 10] | 88% | 
10 | CC(=O)C1=C(C)NC(SCC(=O)c2ccc(Cl)cc2Cl)=C(C#N)C1c1ccc(F)cc1 (racemic) [Compound 11] | 51% | 
11 | CC(=O)C1=C(C)NC(SCC(=O)c2ccc(Br)cc2)=C(C#N)C1c1cccc([N+](=O)[O-])c1 (racemic) [Compound 12] | 34% | 
12 | CC(=O)C1=C(C)NC(SCC(=O)c2ccc(Cl)c(Cl)c2)=C(C#N)C1c1ccccc1 (racemic) [Compound 13] | 95% | 
13 | CC(=O)C1=C(C)NC(SCC(=O)c2ccc([N+](=O)[O-])cc2)=C(C#N)C1c1ccccc1Cl (racemic) [Compound 14] | 24% | 
14 | CC(=O)C1=C(C)NC(SCC(=O)c2ccc(Cl)cc2Cl)=C(C#N)C1c1ccccc1 (racemic) [Compound 15] | 81% | 
15 | CC(=O)C1=C(C)NC(SCC(=O)c2cccc(Br)c2)=C(C#N)C1c1ccccc1 (racemic) [Compound 16] | 143% | 
16 | CC(=O)C1=C(C)NC(SCC(=O)c2ccc(Cl)cc2)=C(C#N)C1c1ccccc1 (racemic) [Compound 17] | 29% | 
17 | CC(=O)C1=C(C)NC(SCC(=O)c2ccc(F)cc2)=C(C#N)C1c1ccccc1 (racemic) [Compound 18] | 37% | 
18 | CC(=O)C1=C(C)NC(SCC(=O)c2ccccc2)=C(C#N)C1c1ccccc1 (racemic) [Compound 19] | 71% | 
19 | CC(=O)C1=C(C)NC(SCC(=O)c2ccc(Cl)c(Cl)c2)=C(C#N)C1c1cccc(C)c1 (racemic) [Compound 20] | 79% | 

Row | SMILES | % increase of a-MyHC over baseline at 10 mM Cpd (α-MyHC protein levels; NRVM, 3 days) | further results
20 | CC(=O)C1=C(C)NC(SCC(=O)c2ccc(Cl)c(Cl)c2)=C(C#N)C1c1ccccc1Cl (racemic) [Compound 21] | 126% | 
21 | CC(=O)C1=C(C)NC(SCC(=O)c2ccc(Cl)cc2Cl)=C(C#N)C1c1ccccc1Cl (racemic) [Compound 22] | 81% | 
22 | CC(=O)C1=C(C)NC(SCC(=O)c2cc(Cl)ccc2Cl)=C(C#N)C1c1ccc(Br)cc1 (racemic) [Compound 23] | 70% | 
23 | CCc1ccc(C2C(C#N)=C(SCC(=O)c3cccc([N+](=O)[O-])c3)NC(C)=C2C(C)=O)cc1 (racemic) [Compound 24] | 130% | 
24 | CC(=O)C1=C(C)NC(SCC(=O)c2cccc([N+](=O)[O-])c2)=C(C#N)C1c1ccc(Cl)cc1 (racemic) [Compound 25] | 139% | 
25 | CC(=O)C1=C(C)NC(SCC(=O)c2ccccc2)=C(C#N)C1c1ccccc1Cl (racemic) [Compound 26] | 161% | 
26 | CC(=O)C1=C(C)NC(SCC(=O)c2cc(Cl)ccc2Cl)=C(C#N)C1c1ccccc1 (racemic) [Compound 27] | 303% | 
27 | CC(=O)C1=C(C)NC(SCC(=O)c2ccc([N+](=O)[O-])cc2)=C(C#N)C1c1ccccc1 (racemic) [Compound 28] | 125% | 
28 | CC(=O)C1=C(C)NC(SCC(=O)c2ccc(Cl)c(Cl)c2)=C(C#N)C1c1cccc([N+](=O)[O-])c1 (racemic) [Compound 29] | 201% | 
29 | CC(=O)C1=C(C)NC(SCC(=O)c2cccc([N+](=O)[O-])c2)=C(C#N)C1c1cccs1 (racemic) [Compound 30] | 156% | 
30 | CC(=O)C1=C(C)NC(SCC(=O)c2ccc(Cl)c(Cl)c2)=C(C#N)C1c1cccs1 (racemic) [Compound 31] | 151% | 
31 | CC(=O)C1=C(C)NC(SCC(=O)c2ccc(Cl)cc2Cl)=C(C#N)C1c1cccs1 (racemic) [Compound 32] | 45% | 
32 | CC(=O)C1=C(C)NC(SCC(=O)c2cc(Cl)ccc2Cl)=C(C#N)C1c1cccs1 (racemic) [Compound 33] | 181% | 
33 | CC(=O)C1=C(C)NC(SCC(=O)c2ccc(Cl)cc2Cl)=C(C#N)C1c1ccco1 (racemic) [Compound 34] | 97% | 
34 | CC(=O)C1=C(C)NC(SCC(=O)c2ccc(Cl)c(Cl)c2)=C(C#N)C1c1ccco1 (racemic) [Compound 35] |  | % increase of a-MyHC over baseline (at 3 µM) (α-MyHC protein levels; at 3 µM, NRVM, 3 days): 125 (at 3 mM) %
35 | CC(=O)C1=C(C)NC(SCC(=O)c2ccc([N+](=O)[O-])cc2)=C(C#N)C1c1ccco1 (racemic) [Compound 36] | 115% | 
36 | CC(=O)C1=C(C)NC(SCC(=O)c2cccc([N+](=O)[O-])c2)=C(C#N)C1c1ccccc1Cl (stereo not drawn) [R-enantiomer] |  | EC50 (α-MyHC protein levels): 790 nM; IC50 [1]: 1100 nM
37 | CC(=O)C1=C(C)NC(SCC(=O)c2cccc([N+](=O)[O-])c2)=C(C#N)C1c1ccccc1Cl (stereo not drawn) [S-enantiomer] |  | EC50 (α-MyHC protein levels): > 32000 nM; IC50 [1]: 389 nM
